Source: publication PMC4351682, “Formononetin inhibits enterovirus 71 replication by regulating COX- 2/PGE2 expression” (Virology Journal, 2015)

Legend:
EV71 VP1 RNA = experiment: One-step qRT-PCR of EV71 VP1 RNA in SK-N-SH cells; assay type: cell-based, enterovirus 71; conditions: EV71 SHZH98 480 pfu/well, 24 h treatment
Source text: (§1) Figure 2 The antiviral effect of formononetin and pirodavir against EV71 in SK-N-SH cells. (A) Formononetin and pirodavir reduced the expression of EV71 VP1 protein in SK-N-SH cells by western blot assay. (B) Formononetin and pirodavir reduced the expression of EV71 VP1 protein in SK-N-SH cells by immunofluorescence assay. Cells were examined using a fluorescence microscopy (×100). (C) Formononetin and pirodavir reduced the expression of EV71 VP1 RNA by one-step qRT-PCR assay. *P < 0.001 ^# P < 0.05.
SK-N-SH cells (9 × 10^5cells/well) were plated into 6-well culture plates for incubation of 16 h. The medium was removed and cells were infected with EV71 (SHZH98) of 480 pfu/well. After 2 h, various concentrations of formononetin were supplemented for incubation of another 24 h. The total RNA of the infected cells was extracted using the RNeasy Mini kit (QIAGEN) according to the manufacturer’s instructions. The one-step qRT-PCR was performed with SuperScript III Platinum SYBR Green One-step RT PCR Kit (Invitrogen) using the ABI 7500 Fast Real-Time PCR system (Applied Biosystems). The mRNA expression of EV71 VP1 was detected with sense primer 5’-[…]-3’ and antisense primer 5’-[…]-3’ targeting a conserved region of the VP1 gene. The β-actin mRNA was detected using sense primers 5’-TGACGGGGT CACCCACA CTGTGCCCATCTA-3’ and antisense primer 5’-CTAGAAGCATTTG CGGTGGACG ATG-3’.

CVB6 (strain Schmitt) = experiment: CPE inhibition assay for anti-CVBs, CVB6 in Vero cells; assay type: cell-based, coxsackievirus B6; conditions: Enterovirus B, CVB6, 100 TCID50, Vero cells
Experimental: (§2) The anti-virus activity of formononetin on CVBs was also assayed by CPE method. Briefly, cells (3 × 10^4 cells/well) were plated into 96-well culture plates for incubation of 24 h. The medium was removed and cells were infected with 100 TCID50 of CVB2, CVB6 or CVB3. Then, various concentrations of formononetin were supplemented for incubation of another 48 h. The IC50 was determined by Reed and Muench method. The SI was calculated as the ratio of TC50/IC50 [19].

EV71 strain H = experiment: CPE inhibition assay, EV71 strain H in Vero cells; assay type: cell-based, enterovirus 71; conditions: Enterovirus A
Experimental: The anti-EV71 activity of formononetin was assayed by CPE inhibition method. Briefly, cells (3 × 10^4 cells/well) were plated into 96-well culture plates for incubation of 24 h. The medium was then removed and cells were infected with EV71 of 80 pfu/well. Then, various concentrations of formononetin were supplemented for incubation of another 48 h. The IC50 defined as the minimal concentration of inhibitor required to inhibit 50% of CPE was determined by Reed & Muench method. The selectivity index (SI) was calculated as the ratio of TC50/IC50 [19].

Vero cells = experiment: Cytotoxicity assay (MTS) in Vero cells; assay type: cell-based; conditions: 3 days
Experimental: Cytotoxic effect of formononetin on Vero or SK-N-SH cells was assayed by MTS (promega) assay. Briefly, cells (3 × 10^4 cells/well) were seeded into 96-well culture plates and were incubated overnight. Then, the medium was removed and different concentrations of formononetin were applied in triplicate. After 3 days’ incubation, the cytotoxicity of formononetin was determined by MTS assay. The TC50 was defined as the concentration that inhibits 50% cellular growth in comparison with the controls and the TC0 was defined as the maximal non-toxicity dose.

PGE2 = PGE2 release assay (EIA) in EV71-infected SK-N-SH cells; assay type: cell-based; conditions: pretreatment 24 h, formononetin 14.91 μmol/L, pirodavir 1.08 μmol/L, supernatant at 24 h p.i.
Experimental: Figure 4 Formononetin could inhibit EV71-induced COX-2 expression and PGE 2 production. (A) Formononetin but not pirodavir can reduce the expression of COX-2 induced by EV71 infection. SK-N-SH cells were mock-infected or infected with 480 pfu/well of EV71 (SHZH98) for 2 h. The cells were then treated with formononetin (14.91 μmol/L) and pirodavir (1.08 μmol/L), respectively, for 24 h. The cells were harvested and EV71-VP1 and COX-2 were examined by western blot. (B) Formononetin but not pirodavir can reduce the release of PGE2 stimulated by EV71 infection. SK-N-SH cells were pretreated with formononetin (14.91 μmol/L) or pirodavir (1.08 μmol/L) for 24 h. The cells were infected with 4.8 × 10^5 pfu/well of EV71 (SHZH98). At 24 h p.i., the culture supernatants were harvested for PGE2 release assay. For the detection of PGE2 release, SK–N–SH cells (3 × 10^5 cells/well) were seeded into 24-well culture plates and were incubated for 16 h. And then the cells were serum-deprived for 24 h and incubated with EV71 for the indicated time intervals. When drugs were used, they were added 24 h prior to the application of EV71. After treatment, the supernatants were harvested. The supernatant from each sample was assayed using a PGE2 EIA kit (AMEKO) following the manufacturer’s instruction. […] The absorbance of each well was measured at 450 nm.

CVB2 (strain Ohio-1) = experiment: CPE inhibition assay for anti-CVBs, CVB2 in Vero cells; assay type: cell-based, coxsackievirus B2; conditions: Enterovirus B, CVB2, 100 TCID50, Vero cells
Experimental: as §2

CVB3 (strain Nancy) = experiment: CPE inhibition assay for anti-CVBs, CVB3 in Vero cells; assay type: cell-based, coxsackievirus B3; conditions: Enterovirus B, CVB3, 100 TCID50, Vero cells
Experimental: as §2

EV71 VP1 protein = experiment: Immunofluorescence assay of EV71 VP1 protein in SK-N-SH cells; assay type: cell-based, enterovirus 71; conditions: EV71 SHZH98 160 pfu/well, 24 h treatment
Source text: as §1
SK-N-SH cells grown on glass coverslips (Thermo) were infected with EV71 (SHZH98) of 160 pfu/well for 2 h. Then, various concentrations of formononetin were supplemented for incubation of another 24 h. After incubation, the culture medium was removed and the cells were washed and fixed. The cells were permeabilized in 0.5% Triton X-100 at room temperature for 15 min and blocked in PBS containing 1% BSA for 60 min at room temperature. Cells were then incubated with an anti-EV71 VP1 antibody (Abnova) at a dilution of 1: 500 for 2 h at room temperature. After washing three times with PBS, the samples were reacted with Alexa Fluor 488-labeled goat anti-mouse secondary antibody (Beyotime Institute of Biotechnology, China) for 1 h at room temperature. After washing with PBS, images were taken using a fluorescence microscope (Olympus, IX71).

| Compound | Levels of EV71 RNA (RT-qPCR) (EV71 VP1 RNA) | IC50 (CVB6 (strain Schmitt)) | IC50 (EV71 strain H) | TC0 (maximal non-toxicity dose) (Vero cells) | TC50 (50% toxicity concentration) (Vero cells) | TC0 (maximal non-toxicity dose) (Vero cells; listed as formononetin) | TC50 (50% toxicity concentration) (Vero cells; listed as formononetin) | EV71-stimulated PGE2 release (PGE2) | IC50 (CVB2 (strain Ohio-1)) | IC50 (CVB3 (strain Nancy)) | Expression of EV71 VP1 protein (immunofluorescence assay) (EV71 VP1 protein) |
| --- | --- | --- | --- | --- | --- | --- | --- | --- | --- | --- | --- |
| COc1ccc(-c2coc3cc(O)ccc3c2=O)cc1 [Formononetin] | dose-dependently decreased | 5.33 ± 1.48 µM | 11.1 ± 9.23 µM | 41.42 ± 0 µmol/L | 149.38 ± 12.15 µM | 41.42 µmol/L | 149.38 µM | attenuated | 9.56 ± 2.23 µM | 2.57 ± 0.87 µM | – |
| CCOC(=O)c1ccc(OCCC2CCN(c3ccc(C)nn3)CC2)cc1 [Pirodavir, reference compound] | decrease | – | – | – | – | – | – | not | – | – | reduced |
